Test results published in US20100304384A1, “METHOD OF IDENTIFYING COMPOUNDS THAT INDUCE OR INHIBIT ENDOPLASMIC RETICULUM STRESS OR OXIDATIVE STRESS” (UNIVERSIDAD AUTONOMA DE MADRID, priority 2007, published 2010).

Tests used:
Type in all cases: cell-based, human
DDIT3 promoter (−1507G) = assay: Luciferase reporter activity in SK-N-MC cells stably transfected with pXP2 DDIT3(−1507G)-Luciferase (G7 cell line); settings: −1507G construct, stable SK-N-MC cells, 15 hours of treatment; ± standard error of the mean
Procedure: (§1) The cell lysate was assayed for the β-galactosidase activity, as an indicator of the transfection efficiency, and luciferase activity, as an indicator of the transcriptional activity of the promoters: • Assay of β-galactosidase activity. 50 μl of cell lysate are incubated in an E.L.I.S.A. plate with 50 μl of enzyme substrate (2 mM MgCl2—Merck—, 100 mM β-mercaptoethanol—Sigma—, 120 mM Na2HPO4, 80 mM NaH2PO4—both from Carlo Erba—and 1.33 mg/ml of ONPG (2-Nitrophenyl-β-D-galactopyranoside)—Sigma—). This reaction generates a colored product the concentration of which is measured as absorbance at 415 nm in an E.L.I.S.A. plate reader (Model 680, from BioRad). • Assay of luciferase activity. 40 μl of cell lysate are measured adding 100 μl of reagent of the enzyme (20 mM Tricin, […], 33.3 mM DTT, 270 μM Coenzyme A —all from Sigma—, 2.67 mM MgSO4, 0.1 mM EDTA—both from Merck—, 470 μM Luciferin potassium salt —Promega—and 530 μM ATP—Boehringer Mannheim—); alternatively, the one of the Luciferase Assay System kit—Promega—was used. The luminescence emission is recorded in a Monolight 2010 illuminometer (Analytical Luminescence Laboratory). […]
(§2) The clones resistant to the antibiotic are isolated by aspiration with an automatic pipette and seeded in an M24 for the expansion thereof. The expression of luciferase is analyzed and the lines having greater luciferase activity are maintained. […]

DDIT3 promoter (−1507C) = assay: Luciferase reporter activity in SK-N-MC cells stably transfected with pXP2 DDIT3(−1507C)-Luciferase (C1 cell line); settings: −1507C construct, stable SK-N-MC cells, 15 hours of treatment; ± standard error of the mean
Procedure: as §1, §2

DDIT3 promoter = assay: Luciferase reporter activity in SK-N-MC cells transiently transfected with pXP2-DDIT3 constructs; settings: transient transfection, both allelic variants; alteration seen after 6 hours of treatment
Procedure: On the day before the transfection 2×10^5 cells per well are seeded in a 24-well plate (M24, from Falcon). 0.7 μg of DNA per well are transfected mixing the plasmids pXP2-DDIT3 and pSV-β-galactosidase in a 1:1 ratio (0.35 μg of pXP2 and 0.35 μg of β-gal) with Lipofectamine Plus (from Life Technologies), following the manufacturer's indications, in a 1:3 DNA:Lipofectamine ratio and allowing the cells to incubate with the plasmid for 5 hours. Twenty-four hours after the transfection the cells are treated to see the response to the stimulus. […]
as §1, with “50 μl of cell lysate are incubated in an E.L.I.S.A. plate with 50 μl of enzyme substrate (2 mM MgCl2—Merck—, 100 mM β-mercaptoethanol—Sigma—, 120 mM Na2HPO4, 80 mM NaH2PO4—both from Carlo Erba—and 1.33 mg/ml of ONPG (2-Nitrophenyl-β-D-galactopyranoside)—Sigma—).” left out, “used.” for “used. The luminescence emission is recorded in a Monolight 2010 illuminometer (Analytical Luminescence Laboratory).”

Substance: Tunicamycin [ERS]
- Luciferase activity with respect to the non-treated cells (activation of the DDIT3 promoter) (DDIT3 promoter (−1507G)): 3.4 ± 0.3 times
- Luciferase activity with respect to the non-treated cells (activation of the DDIT3 promoter) (DDIT3 promoter (−1507C)): 4.6 ± 0.4 times
- Transcriptional activity of the DDIT3 promoter after treatment (DDIT3 promoter): increases significantly
